Assay results taken from patent US20150352075A1, “Treatment of Alzheimer's and Cognitive Impairment With Andrographolides” (INNOBIOSCIENCE, LLC, priority 2013, published 2015).

Legend:
[1] = system: APPswe/PS-1 double transgenic mice; test: Memory flexibility test (modified Morris Water Maze); format: in vivo; details: 7-month-old APPswe/PS-1 mice, 2.0 mg/kg IP three times per week, four weeks, vs Tg control
[2] = system: CA3-CA1 connections in hippocampal slices; test: Electrophysiology (fEPSP, PPF, LTP, LTD) in Wt hippocampal slices; format: cell-based, mice
Description: Slices were transferred to an experimental chamber (2 ml), superfused (3 ml/min, at 20-22° C.) with gassed ACSF and visualized by trans-illumination with a binocular microscope (MSZ-10, Nikon, Melville, N.Y.). […] The stimulation was in the Stratum Radiatum within 100-200 μm from the recording site. The paired pulse facilitation index was calculated by ((R2−R1)/R1), where R1 and R2 were the peak amplitudes of the first and second fEPSP respectively. To generate LTP we used Theta Burst Stimulation (TBS) consisting of 5 trains of stimulus with an inter-train interval of 20 s. Each train consisted of 10 bursts at 5 Hz and each burst having 4 pulses at 100 Hz. To generate LTD we used Low Frequency Stimulation (LFS) consisting in 900 paired pulses at 1 Hz. Recordings were filtered at 2.0-3.0 kHz, sampled at 4.0 kHz using an A/D converter, and stored with pClamp 10 (Molecular Devices). Evoked postsynaptic responses were analyzed off-line, using an analysis software (pClampfit, Molecular Devices), which allowed visual detection of events, computing only those events that exceeded and arbitrary threshold.

HEK293T cells = test: TOPflash/FOPflash luciferase reporter assay; format: cell-based
Description: 150,000 HEK293T cells were seeded in triplicate per condition and kept for 24 hours at 37° C. with 5% CO2. The cultures were transfected with TOPflash or FOPflash (400 ng), which are firefly-luciferase reporter DNA constructs (Milipore), using LipofectAMINE 2000 (Invitrogen). To control for transfection pRL-TK (10 ng) was included in all transfections. […] Values were normalized by the renilla value from the same well. To statistically compare treatments ANOVA was used.

[3] = system: dentate gyrus of wild-type mice; test: Adult hippocampal neurogenesis (Ki67, DCX immunofluorescence); format: in vivo
Description: Animals. Two-month-old C57BC6 wild-type mice were treated and handled according to National Institutes of Health guidelines (NIH, […], Md.). The treatments were performed by intraperitoneal (ip) injection of 2.0 mg/kg ANDRO and wild-type control animals were injected only with saline solution as vehicle.
Mice were anesthetized (100 μg ketamine+10 μg xylazine in […] saline/g), and then transcardially perfused with saline, followed by 4% paraformaldehyde (PFA) in 0.1M PBS. The brains were removed and incubated in PBS-4% PFA for 24 h at room temperature, dehydrated in 30% sucrose and kept at 4° C. until analysis.
After dehydration, each mouse brain was sectioned on a cryostate in 12 sets of serial coronal sections of […] thickness (Leica Microsystems, Wetzlar, Germany) and collected in ice-cold-PBS in multiwell dishes.Each set contained 5-7 sections covering the entire length of the hippocampus.
Sections were washed with PBS 3 times for 5 min and then incubated in blocking solution (3% donkey serum, 3% BSA, 0.5% Triton X-100 in PBS) for 4 h. Then, tissues were incubated overnight with primary antibodies at 4° C. Primary antibodies used were: rabbit anti-Ki67 (Abcam), rabbit anti-DCX (Cell Signaling Technology Inc., Beverly, Mass., USA), monoclonal anti-NeuN (Millipore, Billerica, Mass., USA). After washing 3 times with 0.5% Triton X-100 PBS, sections were incubated with Dy Light (Abcam) conjugated secondary antibodies for 2 h at room temperature. […] For quantification, Ki67 positive cells were countedusing a fluorescence microscope (Olympus BX51, Tokyo, Japan). Cells were counted in all sections of one set (see tissue sectioning). Total cells counted in one set were multiplied by the total number of sets to obtain an estimation of the total number of Ki67+ cells in the complete hippocampus. For quantification of the % area covered by DCX, double labeling DCX/NeuN was carried. […] Images shown were analyzed by confocal laser microscopy (Olympus FV 1000) and z-projections were generated with ImageJ software.

[4] = system: APPswe/PS-1 double transgenic mice; test: Classical Morris Water Maze test; format: in vivo; details: 12 month-old APPswe/PS-1 mice, 2.0 mg/kg IP three times per week, four weeks, vs Tg control
[5] = 2-month-old mice, 2 mg/kg i.p. 3 times per week for 4 weeks

SMILES: C=C1CC[C@@H]2C(C)(CO)C(O)CC[C@@]2(C)C1C/C=C1/C(=O)OCC1O (stereo in doubt) [ANDRO, 3-(2-(Decahydro-6-hydroxy-5-(hydroxymethyl)-5,8a-dimethyl-2-methylenenaphthyl)ethylidene)dihydro-4-hydroxyfuran-2(3H)-one]
- number of trial to criterion of learning [1]: reduction in the number of trial to criterion of learning
- fEPSP amplitude (basal synaptic transmission) ([2]; ANDRO (5 μM), slices exposed for 30 min): increased the fEPSP amplitude
- paired pulse facilitation (PPF) ratio ([2]; Wt hippocampal slices): does not increase PPF ratio
- LTP induction or maintenance ([2]; Wt hippocampal slices, TBS, in the presence of ANDRO): do not observed alteration in the LTP induction or maintenance
- induction of LTD ([2]; hippocampal slices, LFS): the LTD was inhibited
- FOPflash reporter activity (HEK293T cells; 10 μM, 24 h): not in the FOPflash
- TOPflash reporter activity (HEK293T cells; 10 μM, 24 h): significant increase in the TOPflash
- increase of luciferase reporter over control (HEK293T cells; HEK293T, TOPflash): 4 fold
- percentage of the granular cell layer covered by DCX staining [3, 5]: significantly increased
- total number of Ki67+ cells in the SGZ [3, 5]: significantly increased the total number of Ki67^+ cells
- morphology of DCX+ cells ([3]; compared to control mice): more complex morphology
- escape latency [4]: significantly lower escape latency values
